Marks after values point to notes of the source that are not given here.
Tested on: male rats
Test: Plasma metabolite profiling (GC-MS, LC-MS, SPE-LC-MS) in male rats dosed once daily over 28 days (OECD 407)
Type: in vivo, rat
Details: male rats, plasma; for Glucose, ratio versus control / Lysophosphatidylcholine (C20:4), ratio versus control / Threonic acid, ratio versus control: low dose; for Alanine, ratio versus control / Androstenedione, ratio versus control / Cholesterol, ratio versus control / Glycine, ratio versus control / Heptadecanoic acid (C17:0), ratio versus control / Testosterone, ratio versus control / Threonine, ratio versus control / Uric acid, ratio versus control / alpha-Tocopherol, ratio versus control: high dose
Method: Each dose group in the studies consisted of five rats per sex. Additional groups of each 5 male and female animals served as controls. […] All animals of the animal population were kept under the same constant temperature (20-24±3° C.) and the same constant humidity (30-70%). The animals of the animal population were fed ad libitum. The food to be used was essentially free of chemical or microbial contaminants. Drinking water was also offered ad libitum. Accordingly, the water was free of chemical and microbial contaminants as laid down in the European Drinking Water Directive 98/83/EG. The illumination period was 12 hours light followed by 12 hours darkness (12 hours light, from 6:00 to 18:00, and 12 hours darkness, from 18:00 to 6:00). […] The test substances (compounds) in the Tables 1 to 17 below were dosed and administered as described in the Table 18.
In the morning of day 7, 14, and 28, blood was taken from the retroorbital venous plexus from fasted anaesthetized animals. From each animal, 1 ml of blood was collected with EDTA as anticoagulant. The samples were centrifuged for generation of plasma. All plasma samples were covered with a N2 atmosphere and then stored at −80° C. until analysis.
For mass spectrometry-based metabolite profiling analyses plasma samples were extracted and a polar and a non-polar (lipid) fraction was obtained. For GC-MS analysis, the non-polar fraction was treated with methanol under acidic conditions to yield the fatty acid methyl esters. Both fractions were further derivatised with O-methyl-hydroxyamine hydrochloride and pyridine to convert Oxogroups to O-methyloximes and subsequently with a silylating agent before analysis. In LC-MS analysis, both fractions were reconstituted in appropriate solvent mixtures. HPLC was performed by gradient elution on reversed phase separation columns. Mass spectrometric detection which allows target and high sensitivity MRM (Multiple Reaction Monitoring) profiling in parallel to a full screen analysis was applied as described in WO2003073464.
Steroids and their metabolites were measured by online SPE-LC-MS (Solid phase extraction-LC-MS).
Following comprehensive analytical validation steps, the data for each analyte were normalized against data from pool samples. These samples were run in parallel through the whole process to account for process variability. The significance of treatment group values specific for sex, treatmentduration and metabolite was determined by comparing means of the treated groups to the means of the respective untreated control groups using WELCH-test and quantified with treatment ratios versus control and p-values.
The identification of the most important biomarkers per toxicity pattern was done by a ranking of the analytes in the tables below. Therefore the metabolic changes in reference treatments of a given pattern (shown in the table) were compared with changes of the same metabolite in other unrelated treatments. […] The maximum absolute value of the respective TVALUE was taken to indicate the most important metabolite for the pattern.

C[C@]12CCC(=O)C(O)=C1CC[C@@H]1[C@@H]2CC[C@]2(C)C(=O)CC[C@@H]12 [Formestane]
Glucose, ratio versus control (day 7): 0.8 * | Lysophosphatidylcholine (C20:4), ratio versus control (day 7): 0.99 * | Threonic acid, ratio versus control (day 7): 1.27 * | Glucose, ratio versus control (day 14): 0.89 * | Lysophosphatidylcholine (C20:4), ratio versus control (day 14): 0.97 * | Threonic acid, ratio versus control (day 14): 1.24 * | Glucose, ratio versus control (day 28): 0.9 * | Lysophosphatidylcholine (C20:4), ratio versus control (day 28): 0.96 * | Threonic acid, ratio versus control (day 28): 1.44 *

O=P1(NCCCl)OCCCN1CCCl (centres unmarked) [Ifosfamide]
Alanine, ratio versus control (day 7): 1.07 | Androstenedione, ratio versus control (day 7): 3.68 | Cholesterol, ratio versus control (day 7): 1.12 | Glycine, ratio versus control (day 7): 1.33 | Heptadecanoic acid (C17:0), ratio versus control (day 7): 0.94 | Testosterone, ratio versus control (day 7): 2.35 | Threonine, ratio versus control (day 7): 1.21 | Uric acid, ratio versus control (day 7): 0.57 | alpha-Tocopherol, ratio versus control (day 7): 0.99 | Androstenedione, ratio versus control (day 14): 0.21 * | Testosterone, ratio versus control (day 14): 0.21 * | Alanine, ratio versus control (day 28): 0.76 | Androstenedione, ratio versus control (day 28): 0.24 * | Cholesterol, ratio versus control (day 28): 1.13 | Glycine, ratio versus control (day 28): 1.28 | Heptadecanoic acid (C17:0), ratio versus control (day 28): 1.08 | Testosterone, ratio versus control (day 28): 0.22 * | Threonine, ratio versus control (day 28): 0.88 | Uric acid, ratio versus control (day 28): 0.65 | alpha-Tocopherol, ratio versus control (day 28): 0.95

From patent US20150010928A1, “MEANS AND METHODS FOR ASSESSING AN ENDOCRINE DISEASE OR DISORDER” (priority 2012, published 2015)
